Molecular target: T1, Q-eTud34 (Drosophila melanogaster, UniProt Q9VE55)
T1 sequence (Q9VE55 959-1515): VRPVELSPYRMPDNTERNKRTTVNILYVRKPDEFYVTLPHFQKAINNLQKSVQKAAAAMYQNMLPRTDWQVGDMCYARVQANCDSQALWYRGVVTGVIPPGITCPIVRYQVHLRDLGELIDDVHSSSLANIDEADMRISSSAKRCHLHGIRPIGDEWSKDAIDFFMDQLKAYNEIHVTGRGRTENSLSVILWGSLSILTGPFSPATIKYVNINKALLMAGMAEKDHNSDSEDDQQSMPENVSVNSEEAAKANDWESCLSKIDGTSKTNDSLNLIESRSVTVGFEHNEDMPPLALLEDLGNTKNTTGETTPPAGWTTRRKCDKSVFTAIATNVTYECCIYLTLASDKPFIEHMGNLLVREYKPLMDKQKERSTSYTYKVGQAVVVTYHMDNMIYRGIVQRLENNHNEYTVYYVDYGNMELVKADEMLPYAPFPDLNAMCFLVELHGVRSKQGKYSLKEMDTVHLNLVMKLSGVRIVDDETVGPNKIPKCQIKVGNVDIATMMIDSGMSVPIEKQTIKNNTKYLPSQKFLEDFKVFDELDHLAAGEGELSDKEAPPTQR
Experiment: thermal shift assay
Type: binding
Details: read-out: Tm increase at 10 mM

- ΔTm at 10000 µM: 0.9 °C
SMILES: CN(C)C(=N)NCCC[C@H](N)C(=O)O [aDMA]

— doi:10.1101/2021.10.25.465661v1 (biorxiv, 2021)
